The record followed here is US10618944B2, “Tumor suppressor SALL1 as a therapeutic agent for treating cancer” (Saint Louis University, priority 2015, dated 2020).

In one assay the test system is MCF-7. The assay is described as follows: Senescence associated β-Galactosidase (SA-β-Gal) staining. In kind it is cell-based, human. The note with it: for SALL1-induced senescent cell populations with MAPK inhibitor: 10 μM for 5 days, SALL1-transfected cells. How it is done: (§1) Senescence associated β-Galactosidase (SA-β-Gal) activity in tumor cells was detected as previously described (30, 33). Briefly, tumor cell lines were transfected with or without plasmids and cultured for 3 or 5 days. Cells were washed in PBS (pH 7.2), fixed in 3% formaldehyde, and followed to incubate overnight at 37° C. with freshly prepared SA-β-Gal staining solution (1 mg/ml X-gal, 5 mM K3Fe[CN]6, 5 mM K4Fe[CN]6, 2 mM MgCl2 in PBS at pH 6.0). The stained cells were washed with H2O and examined with a microscope. For some experiments, SA-β-Gal^+ populations were determined in the transfected tumor cells in the presence of following various inhibitors or combined transfection with shRNAs: ATM inhibitor KU55933 (20 μM, Tocris Bioscience); mTOR inhibitor Rapmycin (5 μM, Sigma); MAPK inhibitors U0126 (10 μM), SB203580 (10 μM) and SP600125 (10 μM), or PI3 Kinase inhibitor Wortminnin (10 μM) (Calbiochemistry), or transfection with shRNAs against p38, ERK and mTOR, for 3 or 5 days. The treated tumor cells were then detected for SA-β-Gal expression.
(§2) The methods for design and construction of shRNA specific for ERK1, ERK2, P38a, JNK1 and mTOR or scrambled lenti-shRNAs, and generation of recombinant lentivirus carrying GFP and shRNA, have been described previously (Peng et al., 2005 and Peng et al., 2007). For virus transfection, concentrated lentiviral supernatant with a multiplicity of infection (MOI) of 5-10 in a total volume of 0.5 ml culture medium was added to the tumor cells growing in 24 well plates containing 8 μg/ml polybrene (Sigma), and then centrifuged at 1000×g for 1 hr at room temperature. Tumor cells were sorted into GFP^+ and GFP^− cells with a FACS ARIA sorter at 3 or 4 days post-transfection. The sorted cells (GFP^+ and GFP^−) were then transfected with or without pcDNA3.1-SALL-1, and induction of senescence was determined.

A further assay relates to E0771. The assay is described as above. The note with it: for SALL1-induced senescent cell populations with MAPK inhibitor: 10 μM for 5 days, SALL1-transfected cells. In kind it is cell-based, murine. The procedure:
as §1, §2

The test system of assay [1] is ATM-associated DNA damage response in MCF-7. The assay is described as follows: DNA damage response markers by FACS. Format: cell-based, human. The note with it: KU55933 20 μM. The procedure: (§3) The expression of DNA damage response markers on tumor cells were determined by FACS analysis after staining with anti-human specific antibodies conjugated with either PE or FITC. These human antibodies included: anti-phosphorylated H2Ax, anti-phosphorylated p53 bp, and anti-phosphorylated ATM, which were purchased from Cell Signaling Technology or BD Biosciences. All stained cells were analyzed on a FACSCalibur flow cytometer (BD Bioscience) and data analyzed with FlowJo software (Tree Star).

Assay [2] concerns ATM-associated DNA damage response in E0771. Nature of the assay: DNA damage response markers by FACS. In kind it is cell-based, murine. The note with it: KU55933 20 μM. How it is done:
as §3
On the technique in general: In flow cytometry, cells or beads pass a laser one at a time.

Where [3] appears, read: pretreated 20 μM for 1 day, then SALL1 transfection, 3 days.

SMILES strings stand for the structures.

In the case of `O=c1cc(-c2cccc3c2Sc2ccccc2S3)oc(N2CCOCC2)c1` [KU55933], the “SALL1-induced senescence induction with ATM inhibitor” value with MCF-7 (setting [3]) and with E0771 (setting [3]) was “prevented the senescence induction” throughout. Further, the “phosphorylation of ATM in SALL1-transfected tumor cells with inhibitor” value in assay [1] and in assay [2] was “dramatically suppressed” each time.
Take `C[S+]([O-])c1ccc(-c2nc(-c3ccncc3)c(-c3ccc(F)cc3)[nH]2)cc1` (centres unmarked) [SB203580]: the “SALL1-induced senescent cell populations with MAPK inhibitor” value with MCF-7 and with E0771 was “significantly reduced” in each case.
Take `N#CC(=C(/N)Sc1ccccc1N)/C(C#N)=C(\N)Sc1ccccc1N` [U0126]: the “SALL1-induced senescent cell populations with MAPK inhibitor” value in the assay on MCF-7 and in the assay on E0771 was “significantly reduced” throughout.
